Assays:
aldh5a1−/− mouse brain = assay: Brain gene expression (GABA(A) receptor subunits, AMPK/mTOR pathway) under Torin drugs; assay type: in vivo
aldh5a1−/− mice [1] = details: cited from earlier work
[2] = system: gamma-butyrolactone (GBL)-treated animals; assay: Block of sedative and motor effects of GBL in mice; assay type: in vivo; details: diclofenac 25 mg/kg with NCS-382 300 mg/kg
aldh5a1−/− mice [3] = assay: Video-recorded seizure activity after acute i.p. bumetanide; assay type: in vivo
Source text: (§1) FIGS. 5A-5C—Intracellular chloride homeostasis, GABAergic neurotransmission and bumetanide in SSADHD (for abbreviations, see FIG. 1). (FIG. 5A) Schematic diagram of membrane ion transport and mechanism of action of bumetanide. (FIG. 5B) NKCC1 and KCC2 gene expression in the hypothalamus of aldh5a1+/+(n=5) and aldh5a1−/− (n=5) mice collected at postnatal day-of-life 20. Expression data were obtained using q-RT-PCR, validated pathway plates from Bio-Rad. (FIG. 5C) Time to sedation following acute dosing of 100 mg/kg bumetanide. Animals were evaluated at day of life (DOL) 20 and 24 for seizure events, and the time to immobilization (sedation) determined by visual recording using Noldus technology (see text). Bumetanide was administered intraperitoneally to the subject mice after 20 min. of initial observational recording, followed by an additional 20 minutes of recording. Total number of seizures was quantified in 5 min blocks of the total 40 min. recording period. Bumetanide was obtained from Enzo Life Sciences, Inc. (Farmingdale, N.Y., USA) and aseptically dissolved in DMSO vehicle. […] Abbreviations employed: n, number of animals studied; DOL, day of life; sec, seconds; min, minutes.
The potential therapeutic role of NKCC1 inhibition in SSADHD was next examined. […] Applicants' design was to quantify generalized tonic-clonic seizures in 5 minute epochs for 40 minutes in continuum. […]

[4] = system: aldh5a1+/+ and aldh5a1−/− mice; assay: Time to immobilization (sedation) after acute i.p. bumetanide; assay type: in vivo
Source text: as §1
The potential therapeutic role of NKCC1 inhibition in SSADHD was next examined. In this context, Applicants postulated that there would be resistance to the sedative activity of NKCC1 inhibitors in SSADHD, because of the increased expression of NKCC1. Applicants treated aldh5a1+/+ and aldh5a1−/− mice with acute i.p. doses of bumetanide (25 and 100 mg/kg body weight) with video recording of seizure activity as well as assessment of the time to immobilization. […] Applicants employed Pinnacle technology (https://www.pinnaclet.com) technology for recording of animal behavior in conjunction with a rubric developed by Noldus technology to evaluate seizure activity (http://www.noldus.com/animal-behavior-research). Applicants' design was to quantify generalized tonic-clonic seizures in 5 minute epochs for 40 minutes in continuum. At the 20 minute mark, a single intraperitoneal administration of bumetanide (25 or 100 mg/kg) was given and the animals returned to the open field setting.

SMILES: CCC(=O)N1CCN(c2ccc(-n3c(=O)ccc4cnc5ccc(-c6cnc7ccccc7c6)cc5c43)cc2C(F)(F)F)CC1 [Torin 1]
- decreased expression of Prkag1 and 2 (aldh5a1−/− mouse brain; aldh5a1−/− brain): normalized
- lower expression of Tsc1 and 2 (aldh5a1−/− mouse brain; aldh5a1−/− mouse brain): normalized
- rescue from premature lethality / lifespan extension (aldh5a1−/− mice [1]): significantly prolong the lifespan

SMILES: O=C(O)Cc1ccccc1Nc1c(Cl)cccc1Cl [diclofenac]
- effect of co-administration on efficacy of NCS-382 to block sedative and motor effects of GBL [2]: improved the efficacy

SMILES: CCCCNc1cc(C(=O)O)cc(S(N)(=O)=O)c1Oc1ccccc1 [bumetanide]
- seizure activity without sedation (aldh5a1−/− mice [3]; 25 mg/kg, data not shown): reduced seizure activity
- seizure activity between injection and onset of immobilization (aldh5a1−/− mice [3]; 100 mg/kg): no seizure activity
- immobilization during the 40 minute recording ([4]; 25 mg/kg i.p., aldh5a1+/+ or aldh5a1−/−): did not induce immobilization
- immobilization ([4]; 100 mg/kg i.p.): rapid induction of immobilization
- time to sedation in wild-type mice ([4]; 100 mg/kg, aldh5a1+/+): almost instantaneous immobilization
- period from injection to onset of immobilization ([4]; 100 mg/kg, aldh5a1−/−): 3 to 8 min

SMILES: NCCS(=O)(=O)O [taurine]
- rescue from premature lethality / lifespan extension (aldh5a1−/− mice [1]): rescue

Source: patent US20220331448A1, “COMPOSITIONS AND METHODS FOR TREATING SUCCINIC SEMIALDEHYDE DEHYDROGENASE DEFICIENCY (SSADHD)” (Washington State University, priority 2018, published 2022)
